Measurements taken from the kinase profiling compilation of Christmann-Franck et al. (2016).

Key:
Test in all cases: KINOMEscan competition binding
Conditions in all cases: compound 10.0 µM
[1] = test system: EGFR (human), P00533 [752-759 del]
[2] = test system: FLT3 (human), P36888 [D835H]
[3] = test system: EGFR (human), P00533 [T790M]
[4] = test system: FLT3 (human), P36888 [R834Q]
[5] = test system: ABL1 (human), P00519 [Y253F]
[6] = test system: EGFR (human), P00533 [T790M/L858R]
[7] = test system: EGFR (human), P00533 [747-751 del / S ins]
[8] = test system: MET (human), P08581 [Y1235D]
[9] = test system: RET (human), P07949 [V804M]
[10] = test system: KIT (human), P10721 [V559D/V654A]
[11] = test system: KIT (human), P10721 [L576P]
[12] = test system: RET (human), P07949 [M918T]
RET (human), P07949 [M918T], sequence (P07949 whole entry M918T, looked up): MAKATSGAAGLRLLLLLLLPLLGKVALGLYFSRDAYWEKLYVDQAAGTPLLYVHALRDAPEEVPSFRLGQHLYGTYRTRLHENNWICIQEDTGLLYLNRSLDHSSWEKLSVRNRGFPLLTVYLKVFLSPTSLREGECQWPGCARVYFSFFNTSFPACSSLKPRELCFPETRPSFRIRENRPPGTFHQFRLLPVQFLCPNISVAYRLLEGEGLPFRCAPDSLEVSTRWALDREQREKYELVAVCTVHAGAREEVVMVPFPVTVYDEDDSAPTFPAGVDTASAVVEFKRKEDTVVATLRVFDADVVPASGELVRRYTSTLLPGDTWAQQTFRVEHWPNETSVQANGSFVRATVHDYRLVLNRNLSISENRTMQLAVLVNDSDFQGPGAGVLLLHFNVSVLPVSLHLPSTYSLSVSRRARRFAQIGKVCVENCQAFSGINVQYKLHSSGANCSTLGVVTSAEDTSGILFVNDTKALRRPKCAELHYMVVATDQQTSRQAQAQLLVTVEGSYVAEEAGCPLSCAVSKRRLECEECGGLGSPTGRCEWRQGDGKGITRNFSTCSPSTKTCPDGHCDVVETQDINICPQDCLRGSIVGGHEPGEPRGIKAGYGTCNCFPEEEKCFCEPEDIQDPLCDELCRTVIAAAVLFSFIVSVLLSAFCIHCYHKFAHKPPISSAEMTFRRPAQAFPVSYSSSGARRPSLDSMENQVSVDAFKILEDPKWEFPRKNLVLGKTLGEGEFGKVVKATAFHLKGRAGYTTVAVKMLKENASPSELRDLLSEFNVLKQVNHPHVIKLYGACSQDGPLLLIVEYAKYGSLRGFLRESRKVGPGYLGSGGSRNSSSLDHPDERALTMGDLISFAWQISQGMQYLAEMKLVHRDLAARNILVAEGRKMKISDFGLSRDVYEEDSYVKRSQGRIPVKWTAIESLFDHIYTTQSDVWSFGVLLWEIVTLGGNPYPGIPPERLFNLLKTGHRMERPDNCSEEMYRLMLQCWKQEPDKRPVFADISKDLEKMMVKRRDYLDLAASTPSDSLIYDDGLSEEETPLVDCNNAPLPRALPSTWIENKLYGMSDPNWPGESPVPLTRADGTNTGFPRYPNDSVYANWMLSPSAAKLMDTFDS

KIT (human), P10721 [L576P], sequence (P10721 whole entry L576P, looked up): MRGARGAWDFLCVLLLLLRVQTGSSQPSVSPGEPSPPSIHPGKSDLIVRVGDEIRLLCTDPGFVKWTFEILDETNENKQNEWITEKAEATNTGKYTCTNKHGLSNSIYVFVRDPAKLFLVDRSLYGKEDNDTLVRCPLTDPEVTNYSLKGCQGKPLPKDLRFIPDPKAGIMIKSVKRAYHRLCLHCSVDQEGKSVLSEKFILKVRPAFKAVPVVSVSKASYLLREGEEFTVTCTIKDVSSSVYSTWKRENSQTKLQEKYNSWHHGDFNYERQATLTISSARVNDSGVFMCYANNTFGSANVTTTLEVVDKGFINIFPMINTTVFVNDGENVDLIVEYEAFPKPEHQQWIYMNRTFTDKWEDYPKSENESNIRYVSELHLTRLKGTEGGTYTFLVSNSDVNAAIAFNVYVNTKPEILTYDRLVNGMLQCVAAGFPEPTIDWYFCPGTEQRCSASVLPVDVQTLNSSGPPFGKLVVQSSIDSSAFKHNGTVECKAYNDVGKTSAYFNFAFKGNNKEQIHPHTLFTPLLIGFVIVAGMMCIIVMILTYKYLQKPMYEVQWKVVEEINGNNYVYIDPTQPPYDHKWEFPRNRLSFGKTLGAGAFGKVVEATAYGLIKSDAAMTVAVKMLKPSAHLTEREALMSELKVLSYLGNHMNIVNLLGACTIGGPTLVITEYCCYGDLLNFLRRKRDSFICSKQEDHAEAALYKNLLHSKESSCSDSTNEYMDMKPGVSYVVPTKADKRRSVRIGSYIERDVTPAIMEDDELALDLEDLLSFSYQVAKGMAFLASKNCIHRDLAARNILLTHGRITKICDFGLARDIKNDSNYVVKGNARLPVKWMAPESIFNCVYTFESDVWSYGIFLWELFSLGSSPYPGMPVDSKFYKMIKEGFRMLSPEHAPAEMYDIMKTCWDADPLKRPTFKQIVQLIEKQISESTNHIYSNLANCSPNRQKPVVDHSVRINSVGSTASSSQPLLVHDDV
KIT (human), P10721 [V559D/V654A], sequence (P10721 whole entry V559D/V654A, looked up): as the sequence (P10721 whole entry L576P, looked up) above, with V559D, P576L, V654A counted along it
RET (human), P07949 [V804M], sequence (P07949 whole entry V804M, looked up): as the sequence (P07949 whole entry M918T, looked up) above, with V804M, T918M counted along it

SMILES	kinase still bound, per cent of control [1]	kinase still bound, per cent of control [2]	kinase still bound, per cent of control [3]	kinase still bound, per cent of control [4]	kinase still bound, per cent of control [5]	kinase still bound, per cent of control [6]	kinase still bound, per cent of control [7]	kinase still bound, per cent of control [8]	kinase still bound, per cent of control [9]	kinase still bound, per cent of control [10]	kinase still bound, per cent of control [11]	kinase still bound, per cent of control [12]
N#Cc1cc(-c2ccnc(Nc3ccc(-n4cnc(-c5cccnc5)n4)cc3)n2)cc(N2CCOCC2)c1	87%	21%	86%	58%	84%	97%	79%	14%	100%	42%	17%	100%
CC(=O)c1c(C)c2cnc(Nc3ccc(N4CCNCC4)cn3)nc2n(C2CCCC2)c1=O	87%	22%	39%	61%	59%	60%		58%	14%		24%	
N#Cc1c(NC(=O)c2cccc3ccccc23)sc2c1CCCC2		84%		88%	95%			71%	92%	100%	79%	95%
CN(C)C/C=C/C(=O)Nc1cccc(Nc2ncc3c(n2)N(C)c2ccccc2C(=O)N3C)c1	74%	5.3%	43%	37%	0%	86%	77%	77%	0.15%	96%	33%	0.55%
CCN1CCN(Cc2ccc(Nc3ncc4c(n3)N(C)c3ccccc3C(=O)N4C)cc2C(F)(F)F)CC1	98%	8.8%	100%	69%	0.1%	90%	95%	86%	1.2%	100%	46%	0.6%
CCOc1cc2ncc(C#N)c(Nc3ccc(OCc4ccccn4)c(Cl)c3)c2cc1NC(=O)/C=C/CN(C)C		94%		100%				86%	91%			100%
C=CC(=O)Nc1cccc(Nc2nc(N[C@H]3CC[C@H](N(C)C)CC3)nc3c2ncn3C(C)C)c1	82%	5.4%	68%	8.4%	62%	100%	90%	100%	71%	44%	33%	100%
O=C(NC1CC1)c1cccc(-c2ccc3c(NC(=O)C4CC4)n[nH]c3c2)c1	72%	47%	100%	67%	60%	100%	74%	74%	84%	90%	51%	71%
C=CC(=O)Nc1ccc(C(=O)c2sc(Nc3ccc(N4CCN(C)CC4)cc3OC)nc2N)cc1	53%	59%	27%	100%	97%	68%	41%	100%	100%	100%	81%	100%
N#C/C(=C1/Nc2ccccc2S1)c1ccnc(NCCc2cccnc2)n1		83%		68%	100%			88%	88%	100%	33%	100%
Cc1ccc2nc(NCCN)c3ncc(C)n3c2c1	100%	100%	50%	100%	100%	100%	100%	100%	100%	100%		100%
COc1cc2c(Nc3ccc(NC(=O)c4ccccc4)cc3)ncnc2cc1OCCCN1CCOCC1	14%	13%	42%	34%	35%	85%	26%		12%	5.8%	0%	0.1%

Next, values leading:

kinase still bound, per cent of control [1]	kinase still bound, per cent of control [2]	kinase still bound, per cent of control [3]	kinase still bound, per cent of control [4]	kinase still bound, per cent of control [5]	kinase still bound, per cent of control [6]	kinase still bound, per cent of control [7]	kinase still bound, per cent of control [8]	kinase still bound, per cent of control [9]	kinase still bound, per cent of control [10]	kinase still bound, per cent of control [11]	kinase still bound, per cent of control [12]	SMILES
71%			100%		100%	78%	78%	91%	26%	0%	28%	CCCS(=O)(=O)Nc1ccc(F)c(C(=O)c2c[nH]c3ncc(-c4ccc(Cl)cc4)cc23)c1F
90%	76%	40%	77%	72%	87%	81%	65%	43%	92%	93%	15%	CC1=C(C(=O)Nc2cc3cn[nH]c3cc2F)C(c2ccc(C(F)(F)F)cc2)CC(=O)N1 (stereo not drawn)
	4%		14%	28%			30%	5.5%		0%	0.2%	CCN(CCO)CCCOc1ccc2c(Nc3cc(CC(=O)Nc4cccc(F)c4)[nH]n3)ncnc2c1
70%	16%	100%	32%	87%	100%	67%	98%	100%	100%	51%	79%	Nc1ccc(-c2ccc3ncc4ccc(=O)n(-c5cccc(C(F)(F)F)c5)c4c3c2)cn1
70%	87%	77%	78%		100%	51%	100%	100%	100%	75%	79%	O=C(NOC[C@H](O)CO)c1ccc(F)c(F)c1Nc1ccc(I)cc1F
34%		50%	100%				51%	89%	60%	60%	54%	O=C(O)c1ccc(Nc2ncc3c(n2)-c2ccc(Cl)cc2C(c2c(F)cccc2F)=NC3)cc1
